Legend:
[1] = target: T1, Deoxyuridine 5'-triphosphate nucleotidohydrolase, mitochondrial (Homo sapiens, UniProt P33316); experiment: Inhibition of human recombinant dUTPase
T1 sequence (P33316 whole entry): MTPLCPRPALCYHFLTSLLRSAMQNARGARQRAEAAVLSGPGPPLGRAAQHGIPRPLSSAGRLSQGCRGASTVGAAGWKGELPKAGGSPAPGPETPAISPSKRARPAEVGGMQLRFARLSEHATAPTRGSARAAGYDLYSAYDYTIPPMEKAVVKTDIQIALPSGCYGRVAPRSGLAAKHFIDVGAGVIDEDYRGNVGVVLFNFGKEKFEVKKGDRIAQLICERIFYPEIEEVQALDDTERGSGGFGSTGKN

[2] = system: Plasmodium falciparum; experiment: Antiplasmodial activity against Plasmodium falciparum; assay type: functional, organism-based
[3] = system: L6; experiment: Cytotoxicity against rat L6 cells; assay type: functional, cell-based
[4] = target: T2, dUTP pyrophosphatase (Plasmodium falciparum 3D7) (UniProt Q8II92); experiment: Selectivity index, human dUTPase/Plasmodium falciparum dUTPase
T2 sequence (whole entry): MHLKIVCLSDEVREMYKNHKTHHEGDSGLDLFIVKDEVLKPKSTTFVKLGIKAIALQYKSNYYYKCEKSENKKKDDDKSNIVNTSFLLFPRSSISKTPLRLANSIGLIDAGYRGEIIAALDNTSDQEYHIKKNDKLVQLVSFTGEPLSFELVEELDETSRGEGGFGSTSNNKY

[5] = target: T3, dUTP pyrophosphatase (Plasmodium falciparum 3D7, UniProt Q8II92); experiment: Inhibition of Plasmodium falciparum dUTPase
T3 sequence (Q8II92 whole entry): T2 sequence (whole entry)

[6] = Intrinsic clearance in human liver microsome; assay type: ADME; conditions: liver microsomes
[7] = Stability in simulated gastric fluid after 0.2 mins; assay type: ADME; conditions: read-out: Stability

SMILES: CC(C)(C)[Si](OCCCCCCn1ccc(=O)[nH]c1=O)(c1ccccc1)c1ccccc1
- Ki [1]: > 1000 µM
- IC50 [2]: 3.9 µM
- IC50 [3]: 18 µM
- Selectivity index [4]: > 118
- Ki [5]: 8.5 µM

SMILES: O=c1ccn([C@H]2C[C@H](F)[C@@H](COC(c3ccccc3)(c3ccccc3)c3ccccc3)O2)c(=O)[nH]1
- Ki [1]: 457 µM
- IC50 [2]: 2 µM

SMILES: O=c1ccn(CCCCO[Si](c2ccccc2)(c2ccccc2)c2ccccc2)c(=O)[nH]1
- Ki [1]: > 1000 µM
- microsomal CLint [6]: 69 µL/min/mg
- IC50 [2]: 0.36 µM
- remaining at 12 s [7]: < 2%
- Selectivity index [4]: > 446
- Ki [5]: 2.2 µM

SMILES: O=c1ccn(CCCCCNC(c2ccccc2)(c2ccccc2)c2ccccc2)c(=O)[nH]1
- Ki [1]: > 1000 µM
- IC50 [2]: 2.2 µM
- IC50 [3]: 39 µM
- Selectivity index [4]: > 233

SMILES: O=c1ccn(CCCCCCOC(c2ccccc2)(c2ccccc2)c2ccccc2)c(=O)[nH]1
- Ki [1]: 476 µM
- IC50 [2]: 2.3 µM
- IC50 [3]: 44 µM
- Selectivity index [4]: 50
- Ki [5]: 9.6 µM

SMILES: O=C(NCCCCn1ccc(=O)[nH]c1=O)OCc1ccccc1
- Ki [1]: > 1000 µM
- IC50 [2]: 15 µM
- Selectivity index [4]: > 60
- Ki [5]: 17 µM

SMILES: O=c1ccn(CCCCCCNC(c2ccccc2)(c2ccccc2)c2ccccc2)c(=O)[nH]1
- Ki [1]: > 1000 µM
- IC50 [2]: 1.1 µM
- IC50 [3]: 40 µM
- Selectivity index [4]: > 543
- Ki [5]: 1.8 µM

SMILES: CC(=O)OCC(CCn1ccc(=O)[nH]c1=O)CNC(c1ccccc1)(c1ccccc1)c1ccccc1 (centres undefined)
- Ki [1]: 74 µM
- IC50 [2]: 2.8 µM
- IC50 [3]: 37 µM
- Ki [5]: 1.3 µM

SMILES: O=c1ccn(CC(CCO)COC(c2ccccc2)(c2ccccc2)c2ccccc2)c(=O)[nH]1 (centres undefined)
- Ki [1]: 21 µM
- IC50 [2]: 1.9 µM
- IC50 [3]: 57 µM
- Ki [5]: 0.9 µM

SMILES: O=c1ccn(CCCCCOC(c2ccccc2)(c2ccccc2)c2ccccc2)c(=O)[nH]1
- Ki [1]: > 1000 µM
- IC50 [2]: 1.1 µM
- IC50 [3]: 24 µM
- Selectivity index [4]: > 500
- Ki [5]: 2 µM

SMILES: O=c1ccn(CC(CO)CCOC(c2ccccc2)(c2ccccc2)c2ccccc2)c(=O)[nH]1 (centres undefined)
- Ki [1]: 260 µM
- IC50 [2]: 1.2 µM
- IC50 [3]: 33 µM
- Ki [5]: 2.2 µM

SMILES: O=c1ccn(CCCO[Si](c2ccccc2)(c2ccccc2)c2ccccc2)c(=O)[nH]1
- Ki [1]: 25 µM
- IC50 [2]: 0.58 µM
- IC50 [3]: 70 µM
- Selectivity index [4]: 16
- Ki [5]: 1.6 µM

SMILES: O=c1ccn(CCCCCCO[Si](c2ccccc2)(c2ccccc2)c2ccccc2)c(=O)[nH]1
- Ki [1]: 383 µM
- microsomal CLint [6]: 35 µL/min/mg
- IC50 [2]: 0.46 µM
- IC50 [3]: 50 µM
- remaining at 12 s [7]: < 2%
- Selectivity index [4]: 227
- Ki [5]: 1.7 µM

SMILES: O=c1ccn(CCCCO)c(=O)[nH]1
- Ki [1]: > 1000 µM
- IC50 [2]: 235 µM
- Ki [5]: > 1000 µM

SMILES: O=c1ccn(CCCCCCO)c(=O)[nH]1
- Ki [1]: 636 µM
- IC50 [2]: 19 µM
- Ki [5]: > 1000 µM

SMILES: CC(C)(C)[Si](C)(C)OCCOCn1ccc(=O)[nH]c1=O
- Ki [1]: 63 µM
- IC50 [2]: 62 µM
- IC50 [3]: > 299 µM
- Selectivity index [4]: 1.4
- Ki [5]: 44 µM

SMILES: CC(C)(C)OC(=O)NCC(CCn1ccc(=O)[nH]c1=O)COC(c1ccccc1)(c1ccccc1)c1ccccc1 (centres undefined)
- Ki [1]: > 1000 µM
- IC50 [2]: 0.9 µM
- Ki [5]: 2.5 µM

SMILES: O=c1ccn(C/C=C\COC(c2ccccc2)(c2ccccc2)c2ccccc2)c(=O)[nH]1
- Ki [1]: 5.2 µM
- IC50 [2]: 3.5 µM
- IC50 [3]: 39 µM
- Selectivity index [4]: 4
- Ki [5]: 1.2 µM

SMILES: O=c1ccn(C/C=C/COC(c2ccccc2)(c2ccccc2)c2ccccc2)c(=O)[nH]1
- Ki [1]: > 1000 µM
- IC50 [2]: 3.7 µM
- IC50 [3]: 34 µM
- Selectivity index [4]: > 1670
- Ki [5]: 0.6 µM

SMILES: O=c1ccn(COCCOC(c2ccccc2)(c2ccccc2)c2ccccc2)c(=O)[nH]1
- Ki [1]: 17 µM
- microsomal CLint [6]: 96 µL/min/mg
- IC50 [2]: 0.9 µM
- IC50 [3]: 39 µM
- Selectivity index [4]: 25
- Ki [5]: 0.7 µM

SMILES: O=c1ccn(CCCNC(c2ccccc2)(c2ccccc2)c2ccccc2)c(=O)[nH]1
- Ki [1]: 1.4 µM
- IC50 [2]: 4.4 µM
- IC50 [3]: 107 µM
- Selectivity index [4]: 7
- Ki [5]: 0.2 µM

SMILES: O=C(OCCOCn1ccc(=O)[nH]c1=O)c1ccccc1
- Ki [1]: 311 µM
- IC50 [2]: 127 µM
- IC50 [3]: 202 µM
- Selectivity index [4]: 3
- Ki [5]: 98 µM

SMILES: CC(C)(C)[Si](C)(C)O
- IC50 [2]: > 37 µM
- IC50 [3]: > 680 µM

SMILES: O=c1ccn([C@H]2C[C@H](O)[C@@H](COC(c3ccccc3)(c3ccccc3)c3ccccc3)O2)c(=O)[nH]1
- Ki [1]: 18 µM
- IC50 [2]: 6 µM
- IC50 [3]: 192 µM
- Selectivity index [4]: 10

SMILES: O=c1ccn(CCC(CO)CNC(c2ccccc2)(c2ccccc2)c2ccccc2)c(=O)[nH]1 (centres undefined)
- Ki [1]: 5.7 µM
- IC50 [2]: 3.2 µM
- IC50 [3]: 55 µM
- Ki [5]: 0.24 µM

SMILES: OC(c1ccccc1)(c1ccccc1)c1ccccc1 [TRIPHENYLMETHANOL]
- Ki [1]: > 1000 µM
- IC50 [2]: 12 µM
- Ki [5]: > 1000 µM

SMILES: O=C(OCCCn1ccc(=O)[nH]c1=O)c1ccccc1
- Ki [1]: 898 µM
- IC50 [2]: > 18 µM
- Selectivity index [4]: > 97
- Ki [5]: 9.2 µM

SMILES: O=C(OCCCCCCn1ccc(=O)[nH]c1=O)c1ccccc1
- Ki [1]: > 1000 µM
- IC50 [2]: 3.4 µM
- Selectivity index [4]: > 31
- Ki [5]: 32 µM

SMILES: O=c1ccn([C@H]2C[C@H](O)[C@@H](CO[Si](c3ccccc3)(c3ccccc3)c3ccccc3)O2)c(=O)[nH]1
- IC50 [2]: 1.1 µM

SMILES: O=c1ccn(CCCCCO[Si](c2ccccc2)(c2ccccc2)c2ccccc2)c(=O)[nH]1
- Ki [1]: > 1000 µM
- IC50 [2]: 0.38 µM
- IC50 [3]: 47 µM
- Selectivity index [4]: > 265
- Ki [5]: 3.8 µM

SMILES: CC(C)(C)[Si](C)(C)OCCCn1ccc(=O)[nH]c1=O
- Ki [1]: 73 µM
- IC50 [2]: > 18 µM
- IC50 [3]: 192 µM
- Selectivity index [4]: 1
- Ki [5]: 73 µM

SMILES: [N-]=[N+]=NCC(CCOC(c1ccccc1)(c1ccccc1)c1ccccc1)Cn1ccc(=O)[nH]c1=O (centres undefined)
- Ki [1]: > 1000 µM
- IC50 [2]: 0.64 µM
- IC50 [3]: 18 µM
- Ki [5]: 23 µM

SMILES: O=c1ccn(CCCOC(c2ccccc2)(c2ccccc2)c2ccccc2)c(=O)[nH]1
- Ki [1]: 313 µM
- IC50 [2]: 7.5 µM
- IC50 [3]: 34 µM
- Selectivity index [4]: 4
- Ki [5]: 87 µM

SMILES: O=c1ccn(CCCO)c(=O)[nH]1
- Ki [1]: > 1000 µM
- IC50 [2]: > 29 µM
- Selectivity index [4]: > 2
- Ki [5]: 368 µM

SMILES: CC(C)(C)OC(=O)NCCCCn1ccc(=O)[nH]c1=O
- Ki [1]: > 1000 µM
- IC50 [2]: 17 µM
- Selectivity index [4]: > 8
- Ki [5]: 112 µM

SMILES: O[Si](c1ccccc1)(c1ccccc1)c1ccccc1
- Ki [1]: > 1000 µM
- IC50 [2]: 0.65 µM
- IC50 [3]: 138 µM
- Ki [5]: > 1000 µM

SMILES: O=c1ccn(CCCCCO)c(=O)[nH]1
- Ki [1]: > 1000 µM
- IC50 [2]: 20 µM
- IC50 [3]: > 454 µM
- Ki [5]: > 1000 µM

SMILES: O=c1ccn([C@H]2C[C@H](O)[C@@H](CNC(c3ccccc3)(c3ccccc3)c3ccccc3)O2)c(=O)[nH]1
- Ki [1]: 46 µM
- IC50 [2]: 4.5 µM
- IC50 [3]: 44 µM

SMILES: O=C(OCCCCn1ccc(=O)[nH]c1=O)c1ccccc1
- Ki [1]: 496 µM
- IC50 [2]: 38 µM
- Selectivity index [4]: 2
- Ki [5]: 224 µM

From ChEMBL document CHEMBL1138899, “Acyclic nucleoside analogues as inhibitors of Plasmodium falciparum dUTPase” (J Med Chem, 2006)
